Measured values as given in patent US7781565B2 (priority 2006, dated 2010).

test system: NCI-60 cell lines; format: cell-based, human

Substance	Cell Line the peptide is associated with (peptide recovered from phage library selection on this NCI-60 cell line)	Cell Line (NCI-60 cell line the peptide and its motif are associated with)	Cell Line (NCI-60 cell line the peptide is associated with)	Cell Line with which the peptide (and its tripeptide motif) is associated
SHHRSSI	SN12C Renal	–	–	–
GVVQAVS	–	SK-MEL-5 Melanoma	–	–
TLGGLRT	–	–	SF-295 CNS	–
SSGSVDS	–	–	–	H322-Lung
RLSGAGD	–	OVCAR-5 Ovarian	–	–
RERGAVQ	–	–	–	CCRF-CEM Leukemia
DNCERGV	–	UACC62 Melanoma	–	–
FTLRVDK	–	–	–	K-562-Leukemia
PGGGRGR	UO31 Renal	–	–	–
LGAGMIA	–	OVCAR-8 Ovarian	–	–
GLVSVEA	–	–	–	A549-Lung
LLGIGGS	–	SK-MEL-28 Melanoma	–	–
SSTRGVY	–	–	HT-29 Colon	–
VLRGSTP	–	PC3 Prostate	–	–
RRLSYRD	–	–	–	RPMI-8226-Leukemia
DVRGRVW	–	–	–	H460-Lung
GVGGRQS	TK-10 Renal	–	–	–
PGGSDAA	–	–	SNB-19 CNS	–
YGESLLR	–	–	SNB-75 CNS	–
MLASAGR	–	–	–	HL-60-Leukemia
APLRSGR	–	–	–	EKVX-Lung
PGSSFVG	–	–	HCT-15 Colon	–
SMRGVLS	BT-549 Breast	–	–	–
DGAGSLR	–	OVCAR-5 Ovarian	–	–
IYGGLVI	–	SK-MEL-5 Melanoma	–	–

Substance	Cell Line the peptide is associated with (peptide recovered from phage library selection on this NCI-60 cell line)	Cell Line (NCI-60 cell line the peptide and its motif are associated with)	Cell Line (NCI-60 cell line the peptide is associated with)	Cell Line with which the peptide (and its tripeptide motif) is associated
DTLASLR	–	–	HT-29 Colon	–
LSKGGSE	T-47D Breast	–	–	–
QRSSDLT	–	M14 Melanoma	–	–
SGGLHEG	–	–	–	SR Leukemia
YAASLMG	–	–	SNB-75 CNS	–
HGGPGAV	–	–	LOX-IMVI Melanoma	–
GPSWATV	–	–	LOX-IMVI Melanoma	–
RAVEMGT	–	–	–	H460-Lung
PRAGGRW	–	–	–	EKVX-Lung
GLVTAPL	–	–	COLO-205-Colon	–
SEQRGGL	ACHN Renal	–	–	–
LGLVHWV	MDA-MB-231 Breast	–	–	–
AGDSRLS	–	–	HCT-15 Colon	–
RLRSYVA	–	786-0 Renal	–	–
GRLRLRV	–	–	SF-295 CNS	–
EGSVDAH	–	–	SW620-Colon	–
NLADGSV	–	–	–	H322-Lung
AGGPSSY	UO31 Renal	–	–	–
FHIWGGR	MDA-MB-231 Breast	–	–	–
GSGRALA	–	SK-MEL-2 Melanoma	–	–
DPRGLRV	–	–	–	HL-60-Leukemia
TGGSLLG	–	IGROV1 Ovarian	–	–
GRGVGTD	–	–	HT-29 Colon	–
ATLDGVS	–	SK-OV-3-3 Ovarian	–	–
LRPGLRS	CAIK-1 Renal	–	–	–

Substance	Cell Line the peptide is associated with (peptide recovered from phage library selection on this NCI-60 cell line)	Cell Line (NCI-60 cell line the peptide and its motif are associated with)	Cell Line (NCI-60 cell line the peptide is associated with)	Cell Line with which the peptide (and its tripeptide motif) is associated
LRSGAGS	–	–	–	Molt-4-Leukemia
GRVTLES	–	OVCAR-3 Ovarian	–	–
GGSTVPQ	–	OVCAR-8 Ovarian	–	–
CGARGAA	–	–	–	H322-Lung
RGVGKTK	MDA-MB-231 Breast	–	–	–
ARGGESA	–	SK-OV-3-3 Ovarian	–	–
SKYNLRS	–	–	HT-29 Colon	–
SVVGVST	–	–	HCT-15 Colon	–
LELLSVV	–	–	SNB-75 CNS	–
KSGSSVL	–	–	–	HL-60-Leukemia
EGTSGSV	–	–	KM-12C Colon	–
RHGVRSK	–	–	SF-295 CNS	–
TTQLRGV	–	UACC62 Melanoma	–	–
SPTGGRR	–	–	LOX-IMVI Melanoma	–
GSSVSLG	BT-549 Breast	–	–	–
RQTTGAV	–	–	–	K-562-Leukemia
GAVVKPI	–	–	–	A549-Lung
WSAGGPH	–	–	–	SR Leukemia
AFKTGGS	–	M14 Melanoma	–	–
GLVGGSS	–	–	–	H460-Lung
RDGAVNL	–	UACC 257 Melanoma	–	–
ARRGLGL	–	–	SNB-75 CNS	–
RIGRVWA	–	–	–	Molt-4-Leukemia
GGAGSRR	UO31 Renal	–	–	–
DGVSPLW	TK-10 Renal	–	–	–

Substance	Cell Line the peptide is associated with (peptide recovered from phage library selection on this NCI-60 cell line)	Cell Line (NCI-60 cell line the peptide and its motif are associated with)	Cell Line (NCI-60 cell line the peptide is associated with)	Cell Line with which the peptide (and its tripeptide motif) is associated
TRSSLTH	TK-10 Renal	–	–	–
RGSYVER	BT-549 Breast	–	–	–
DTPSAVS	–	–	SF-268 CNS	–
SIGPSTN	–	–	–	H460-Lung
VLGMRSS	–	–	–	SR Leukemia
YLLRALG	–	–	SF-268 CNS	–
ATIPGGS	–	–	LOX-IMVI Melanoma	–
VLRSGEL	–	–	SF-295 CNS	–
WLLRGFG	–	A498 Renal	–	–
EQLSGVR	–	–	–	CCRF-CEM Leukemia
NGRGSGW	–	–	–	HL-60-Leukemia
WLDAAVK	–	–	LOX-IMVI Melanoma	–
WISAVSK	–	SK-OV-3-3 Ovarian	–	–
GSGSVRT	BT-549 Breast	–	–	–
RVGAGWP	BT-549 Breast	–	–	–
EHPAGGM	–	–	–	A549-Lung
TWIGRVS	–	–	LOX-IMVI Melanoma	–
VGVRFSR	–	SK-MEL-28 Melanoma	–	–
WQVALRS	–	–	HT-29 Colon	–
YRGSSGK	–	–	–	RPMI-8226-Leukemia
RRDGLVE	–	786-0 Renal	–	–
GRLWYVA	–	DU-145 Prostate	–	–
